Results taken from patent publication US4822787A, “3-pyrrolidinylthio-1-azabicyclo(3.2.0)-hept-2-ene-2-carboxylic acid compounds and antimicrobial activity thereof” (Fujisawa Pharmaceutical Co., Ltd., priority 1986, dated 1989).
Values after ≈ are worked out from the molar mass of the structure shown.

Key:
Format in all cases: cell-based
S. aureus 2496 = experiment: in vitro Antimicrobial Activity, two-fold agar-plate dilution method (MIC), S. aureus 2496; settings: Staphylococcus aureus, Mueller Hinton agar, 37° C., 20 hours, read-out: minimal inhibitory concentration (MIC)
Description: (§1) in vitro Antimicrobial Activity was determined by the two-fold agar-plate dilution method as described below. One loopful of 100-fold dilution of an overnight culture of a test strain in Mueller Hinton broth (Difco) (approximately 10^6 viable cells per ml) was spot-inoculated on Mueller Hinto agar^(*) (Difco) containing graded concentrations of the test compound, and the minimal inhibitory concentration (MIC) was expressed in terms of μg/ml after incubation at 37° C. for 20 hours.

P. aeruginosa 3036 = experiment: in vitro Antimicrobial Activity, two-fold agar-plate dilution method (MIC), P. aeruginosa 3036; settings: Pseudomonas aeruginosa, Mueller Hinton agar, 37° C., 20 hours, read-out: minimal inhibitory concentration (MIC)
Description: as §1

E. cloacae 3013 = experiment: in vitro Antimicrobial Activity, two-fold agar-plate dilution method (MIC), E. cloacae 3013; settings: Enterobacter cloacae, Mueller Hinton agar, 37° C., 20 hours, read-out: minimal inhibitory concentration (MIC)
Description: as §1

H. influenzae 58 = experiment: in vitro Antimicrobial Activity, two-fold agar-plate dilution method (MIC), H. influenzae 58; settings: Haemophilus influenzae, added 5% horse blood-chocolate agar, 37° C., 20 hours, read-out: minimal inhibitory concentration (MIC)
Description: as §1, with “hours. [(*)added 5% horse blood-chocolate agar for the test of H. influenzae]” for “hours.”

MIC (S. aureus 2496) | MIC (P. aeruginosa 3036) | MIC (E. cloacae 3013) | MIC (H. influenzae 58) | SMILES
0.05 µg/mL (≈ 0.117 µM) | 0.39 µg/mL (≈ 0.91 µM) | ≤ 0.025 µg/mL | 0.1 µg/mL (≈ 0.233 µM) | C[C@@H](O)[C@H]1C(=O)N2C(C(=O)O)=C(S[C@@H]3CN[C@H](COCCNC(N)=O)C3)[C@H](C)[C@H]12 [Compound of this invention, (4R,5S,6S)-6-[(1R)-1-hydroxyethyl]-4-methyl-7-oxo-3-[(2S,4S)-2-{(2-ureidoethyl)oxymethyl}pyrrolidin-4-yl]thio-1-azabicyclo[3.2.0]hept-2-ene-2-carboxylic acid]
1.56 µg/mL (≈ 4.06 µM) | 1.56 µg/mL (≈ 4.06 µM) | 0.1 µg/mL (≈ 0.26 µM) | 0.78 µg/mL (≈ 2.03 µM) | C[C@@H](O)[C@H]1C(=O)N2C(C(=O)O)=C(S[C@@H]3CN[C@H](CNC(N)=O)C3)[C@H](C)[C@H]12 [Reference Compound, (4R,5S,6S)-6-[(1R)-1-hydroxyethyl]-4-methyl-7-oxo-3-[(2S,4S)-2-ureidomethylpyrrolidin-4-yl]thio-1-azabicyclo[3.2.0]hept-2-ene-2-carboxylic acid]
